Results reported in US20250313548A1 (Actio Biosciences, Inc., priority 2023, published 2025).

What follows are compounds tested against human, KCNT1 (Homo sapiens (Human), UniProt Q5JUK3) (assay: FLIPR Tl/K Flux Assay). Details: HEK293 cells stably expressing human KCNT1; Tl+ flux stimulated with EC80 of agonist Loxapine.
Assay type: cell-based
Procedure: HEK293 cells stably expressing human, KCNT1 were cultured in DMEM, 10% FBS, 100 U/mL penicillin-streptomycin and […] puromycin for selection purposes. One day before the assay, cells were detached using TrypLE™ Express and counted using a cell counter. Only cells with >85% viability were used for the assay. […] The cells were incubated overnight at 37° C., 5% (v/v) CO2.
On the day of the assay, the reagents were prepared following the FLIPR® Potassium Assay Kit manual: prepare 2× dye solution, dilute the dye with assay buffer (20 mM HEPES in 1× HBSS, PH7.4), addition of probenecid to a final concentration of 5 mM, and vortexed vigorously for 1-2 minutes. The cell plate was flicked to remove medium and tapped on paper towels to remove excess media. […] The cell plate was moved to a plate shaker, agitated at 600 rpm for two minutes, and then incubated at 25° C. for one hour.
The compounds were prepared in DMSO and transferred to a 384-well compound plate (PP, low binding), referred to as a source plate. Reference agonist (300 nM) compound and test inhibitor (10 mM) compounds were added to the compound plate and a 4-fold serial dilution was performed in DMSO. Using an ECHO dispenser, compounds were dispensed at 90 nL/well from the source plate to a 384-well compound plate (PP, low binding). After the dispensing was complete, 30 µL/well assay buffer was added to the compound plate and mixed for two minutes on a plate shaker. The cell plate, compound plate, and tips were loaded into the FLIPR instrument, and a transfer of 10 μl of 3× compound to the cell plate was initiated. The treated cell plate was kept at in the dark at 25° C. for 30 minutes. Chloride-free stimulation buffer containing 4× 2 mM Tl+ and 4×EC80 of agonist Loxapine was loaded into a 384-well compound plate (PP, low binding). After the 30-minute incubation, the cell plate, compound plate containing stimulation buffer, and FLIPR tips were loaded into the FLIPR instrument. After a baseline read, the FLIPR initiates a transfer of 10 μL of stimulation buffer containing Loxapine to the cell plate. The plate was read for 160 sec with 1 second interval reads to obtain the data.
The normalized fluorescence reading (RFU) was calculated as shown follow, while Fmax and Fmin stand for maximum and minimum of signal during defined time window. The IC50 was calculated by fitting % inhibition against log of compound concentrations with Hill equation using XLfit.

Sequence of human, KCNT1 (Q5JUK3 whole entry): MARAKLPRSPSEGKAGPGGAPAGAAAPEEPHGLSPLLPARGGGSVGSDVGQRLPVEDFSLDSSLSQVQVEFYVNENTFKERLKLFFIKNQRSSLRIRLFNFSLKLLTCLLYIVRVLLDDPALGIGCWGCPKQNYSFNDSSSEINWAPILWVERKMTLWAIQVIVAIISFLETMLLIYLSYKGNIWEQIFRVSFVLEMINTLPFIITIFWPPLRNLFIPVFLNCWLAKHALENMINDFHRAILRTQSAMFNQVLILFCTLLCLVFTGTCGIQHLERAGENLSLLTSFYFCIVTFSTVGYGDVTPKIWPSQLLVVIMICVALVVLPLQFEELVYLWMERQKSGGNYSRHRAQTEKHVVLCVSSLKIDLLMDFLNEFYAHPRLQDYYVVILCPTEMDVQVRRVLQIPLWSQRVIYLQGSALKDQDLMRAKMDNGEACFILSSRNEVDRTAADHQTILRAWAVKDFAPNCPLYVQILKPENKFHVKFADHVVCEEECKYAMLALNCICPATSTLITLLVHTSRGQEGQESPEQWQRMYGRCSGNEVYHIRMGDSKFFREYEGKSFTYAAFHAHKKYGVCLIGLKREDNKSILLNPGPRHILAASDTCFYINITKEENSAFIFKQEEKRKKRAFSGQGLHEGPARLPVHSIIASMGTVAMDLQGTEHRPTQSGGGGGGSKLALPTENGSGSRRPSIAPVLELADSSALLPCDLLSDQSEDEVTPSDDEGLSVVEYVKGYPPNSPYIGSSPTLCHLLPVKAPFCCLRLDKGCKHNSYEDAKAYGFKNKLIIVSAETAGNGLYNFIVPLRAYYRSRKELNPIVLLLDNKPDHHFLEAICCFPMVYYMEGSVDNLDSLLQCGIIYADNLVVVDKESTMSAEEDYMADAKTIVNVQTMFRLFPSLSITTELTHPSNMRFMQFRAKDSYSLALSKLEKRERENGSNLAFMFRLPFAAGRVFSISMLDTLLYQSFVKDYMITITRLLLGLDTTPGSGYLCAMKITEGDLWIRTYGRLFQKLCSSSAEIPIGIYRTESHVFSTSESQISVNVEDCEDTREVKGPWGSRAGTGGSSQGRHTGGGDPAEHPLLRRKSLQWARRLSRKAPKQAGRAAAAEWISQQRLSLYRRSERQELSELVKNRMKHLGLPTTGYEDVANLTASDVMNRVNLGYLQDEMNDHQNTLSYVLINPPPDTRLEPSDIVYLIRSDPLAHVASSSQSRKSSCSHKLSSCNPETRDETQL

Row | Compound | IC50
1 | Cn1nc(C(F)(F)F)cc1C(=O)NC1CCCc2nn(-c3ccc(=O)[nH]c3)cc21 (racemic) [Compound I-33, (rac)-1-Methyl-N-(2-(6-oxo-1,6-dihydropyridin-3-yl)-4,5,6,7-tetrahydro-2H-indazol-4-yl)-3-(trifluoromethyl)-1H-pyrazole-5-carboxamide] | > 1000 nM
2 | Cn1nc(C(F)(F)F)cc1C(=O)NC1CCCc2nn(-c3ccn4ccnc4c3)cc21 (racemic) [Compound I-34, (rac)-N-(2-(Imidazo[1,2-a]pyridin-7-yl)-4,5,6,7-tetrahydro-2H-indazol-4-yl)-1-methyl-3-(trifluoromethyl)-1H-pyrazole-5-carboxamide] | > 1000 nM
3 | Cn1nc(C(F)(F)F)cc1C(=O)NC1CCCc2nn(-c3cc[nH]c(=O)c3)cc21 (racemic) [Compound I-35, (rac)-1-Methyl-N-(2-(2-oxo-1,2-dihydropyridin-4-yl)-4,5,6,7-tetrahydro-2H-indazol-4-yl)-3-(trifluoromethyl)-1H-pyrazole-5-carboxamide] | > 1000 nM
4 | O=C(NC1CCCc2nn(-c3ccnc(C(F)(F)F)c3)cc21)c1ccncc1 (racemic) [Compound I-36, (rac)-N-(2-(2-(Trifluoromethyl)pyridin-4-yl)-4,5,6,7-tetrahydro-2H-indazol-4-yl)isonicotinamide] | > 1000 nM
5 | Cn1nc(C(F)(F)F)cc1C(=O)NC1CCCc2nn(-c3ccn4nccc4c3)cc21 (racemic) [Compound I-38, (rac)-1-Methyl-N-(2-(pyrazolo[1,5-a]pyridin-5-yl)-4,5,6,7-tetrahydro-2H-indazol-4-yl)-3-(trifluoromethyl)-1H-pyrazole-5-carboxamide] | > 1000 nM
6 | Cn1nc(C(F)(F)F)cc1C(=O)NC1CCCc2nn(-c3ccc(=O)n(C)c3)cc21 (racemic) [Compound I-39, (rac)-1-Methyl-N-(2-(1-methyl-6-oxo-1,6-dihydropyridin-3-yl)-4,5,6,7-tetrahydro-2H-indazol-4-yl)-3-(trifluoromethyl)-1H-pyrazole-5-carboxamide] | > 1000 nM
7 | Cn1nc(C(F)(F)F)cc1C(=O)NC1CCCc2nn(-c3ccn(C)c(=O)c3)cc21 (racemic) [Compound I-40, (rac)-1-Methyl-N-(2-(1-methyl-2-oxo-1,2-dihydropyridin-4-yl)-4,5,6,7-tetrahydro-2H-indazol-4-yl)-3-(trifluoromethyl)-1H-pyrazole-5-carboxamide] | > 1000 nM
8 | Cn1nc(C(F)(F)F)cc1C(=O)NC1CCCn2nc(-c3ccnc(C(F)(F)F)c3)cc21 (racemic) [Compound I-42, (rac)-1-Methyl-3-(trifluoromethyl)-N-(2-(2-(trifluoromethyl)pyridin-4-yl)-4,5,6,7-tetrahydropyrazolo[1,5-a]pyridin-4-yl)-1H-pyrazole-5-carboxamide] | < 250 nM
9 | Cn1nc(C(F)(F)F)cc1C(=O)NC1CCCCc2nn(-c3ccnc(C(F)(F)F)c3)cc21 (racemic) [Compound I-45, (rac)-1-Methyl-3-(trifluoromethyl)-N-(2-(2-(trifluoromethyl)pyridin-4-yl)-2,4,5,6,7,8-hexahydrocyclohepta[c]pyrazol-4-yl)-1H-pyrazole-5-carboxamide] | < 250 nM
10 | CCOc1cc(-n2cc3c(n2)CCCC3NC(=O)c2cc(C(F)(F)F)nn2CC)ccn1 (racemic) [Compound I-55, (rac)-N-(2-(2-Ethoxypyridin-4-yl)-4,5,6,7-tetrahydro-2H-indazol-4-yl)-1-ethyl-3-(trifluoromethyl)-1H-pyrazole-5-carboxamide] | < 250 nM
11 | CCOc1cc(-n2cc3c(n2)CCCCC3NC(=O)c2cccc(C)c2)ccn1 (racemic) [Compound I-59, (rac)-N-(2-(2-Ethoxypyridin-4-yl)-2,4,5,6,7,8-hexahydrocyclohepta[c]pyrazol-4-yl)-3-methylbenzamide] | < 250 nM
12 | CCOc1cc(-n2cc3c(n2)CCCCC3NC(=O)c2cccc(C(F)(F)F)c2)ccn1 (racemic) [Compound I-61, (rac)-N-(2-(2-Ethoxypyridin-4-yl)-2,4,5,6,7,8-hexahydrocyclohepta[c]pyrazol-4-yl)-3-(trifluoromethyl)benzamide] | < 250 nM
13 | Cn1nc(C(F)(F)F)cc1C(=O)NC1CCc2nn(-c3ccnc(C(F)(F)F)c3)cc2C1 (racemic) [Compound I-63, (rac)-1-Methyl-3-(trifluoromethyl)-N-(2-(2-(trifluoromethyl)pyridin-4-yl)-4,5,6,7-tetrahydro-2H-indazol-5-yl)-1H-pyrazole-5-carboxamide] | < 250 nM
14 | Cn1nc(C(F)(F)F)cc1C(=O)NC1CCCCn2nc(-c3ccnc(C4CC4)c3)cc21 (single isomer, unassigned) [Compound I-67] | < 250 nM
15 | O=C(N[C@H]1CCCCc2nn(-c3ccnc(C(F)(F)F)c3)cc21)c1cc(Cl)cc(C(F)(F)F)c1 (single isomer, unassigned) [Compound I-109a] | < 250 nM
16 | Cc1cc(F)cc(C(=O)N[C@H]2CCc3nn(-c4ccnc(C(F)(F)F)c4)cc32)c1 (single isomer, unassigned) [Compound I-384a] | < 250 nM
17 | N#Cc1cccc(C(=O)N[C@H]2CCn3cc(-c4ccnc(C(F)(F)F)c4)cc32)c1 (stereo in doubt) [Compound I-276a, 3-Cyano-N-(6-(2-(trifluoromethyl)pyridin-4-yl)-2,3-dihydro-1H-pyrrolizin-1-yl)benzamide] | < 250 nM
18 | Cn1nc(C(F)(F)F)cc1C(=O)N[C@H]1CCc2nn(-c3ccnc(C(F)(F)F)c3)cc21 [Compound I-1a, (S)-1-Methyl-3-(trifluoromethyl)-N-(2-(2-(trifluoromethyl)pyridin-4-yl)-2,4,5,6-tetrahydrocyclopenta[c]pyrazol-4-yl)-1H-pyrazole-5-carboxamide] | < 250 nM
19 | Cn1nc(C(F)(F)F)cc1C(=O)N[C@@H]1CCc2nn(-c3ccnc(C(F)(F)F)c3)cc21 [Compound I-1b, (R)-1-Methyl-3-(trifluoromethyl)-N-(2-(2-(trifluoromethyl)pyridin-4-yl)-2,4,5,6-tetrahydrocyclopenta[c]pyrazol-4-yl)-1H-pyrazole-5-carboxamide] | > 1000 nM
20 | O=C(N[C@H]1CCCc2nn(-c3ccnc(C(F)(F)F)c3)cc21)c1cc(Cl)cc(C(F)(F)F)c1 [Compound I-2a, (S)-3-Chloro-5-(trifluoromethyl)-N-(2-(2-(trifluoromethyl)pyridin-4-yl)-4,5,6,7-tetrahydro-2H-indazol-4-yl)benzamide] | < 250 nM
21 | Cn1nc(CC#N)cc1C(=O)N[C@H]1CCCc2nn(-c3ccnc(C(F)(F)F)c3)cc21 [Compound I-3a] | 500 to 1000 nM

Second part, the compound after the results:

Row | IC50 | Compound
22 | < 250 nM | Cn1cc(C(=O)N[C@H]2CCCn3nc(-c4ccnc(C(F)(F)F)c4)cc32)c(C(F)(F)F)c1 (single isomer, unassigned) [Compound I-409a]
23 | > 1000 nM | COc1cc(-c2cc3n(n2)CCC3NC(=O)c2nc(C(F)(F)F)nn2C)ccn1 (single isomer, unassigned) [Compound I-473]
24 | < 250 nM | CC(F)(F)c1cc(-c2nc3c(o2)CCCC3NC(=O)c2cc(C(F)(F)F)n(C(F)F)n2)ccn1 (single isomer, unassigned) [Compound I-534]
25 | < 250 nM | CC(F)(F)c1cc(-c2nc3c(o2)CCCC3NC(=O)c2cn(C(F)(F)F)nc2C(F)F)ccn1 (single isomer, unassigned) [Compound I-535]
26 | < 250 nM | Cn1nc(C(F)(F)F)cc1C(=O)N[C@H]1CCCc2nc(-c3ccnc(C(F)(F)F)c3)ccc21 (single isomer, unassigned) [I-149*]
27 | > 1000 nM | O=C(N[C@H]1CCCc2cnc(-c3ccnc(C(F)(F)F)c3)cc21)c1cc2cccnn2c1 (single isomer, unassigned) [I-268*]
28 | > 1000 nM | COc1cc(C(=O)N[C@H]2CCCc3cnc(-c4ccnc(C(F)(F)F)c4)cc32)ccn1 (single isomer, unassigned) [I-269*]
29 | > 1000 nM | O=C(N[C@H]1CCCc2cnc(-c3ccnc(C(F)(F)F)c3)cc21)c1cncc(C(F)(F)F)n1 (single isomer, unassigned) [I-270*]
30 | 500 to 1000 nM | Cc1nc(C(F)(F)F)oc1C(=O)N[C@H]1CCCc2cnc(-c3ccnc(C(F)(F)F)c3)cc21 (single isomer, unassigned) [I-271*]
31 | < 250 nM | Cn1nc(C(F)(F)F)cc1C(=O)N[C@H]1CCCCn2nc(-c3ccnc(C(F)(F)F)c3)nc21 (single isomer, unassigned) [I-272*]
32 | < 250 nM | N#Cc1cccc(C(=O)NC2CCCn3cc(-c4ccnc(C(F)(F)F)c4)cc32)c1 (single isomer, unassigned) [I-309*]
